Results published in article PMC9959269, “Pyrrolyl and Indolyl α-γ-Diketo Acid Derivatives Acting as Selective Inhibitors of Human Carbonic Anhydrases IX and XII” (Pharmaceuticals, 2023).
Where “and” joins values, the source holds several entries; their conditions need not be identical. Equal entries are not always repeated.

How the values were obtained:
hCA I = molecular target: T1, hCA I (Homo sapiens, UniProt P00915); assay: Stopped flow CO2 hydrase assay, hCA I inhibition; assay type: biochemical; conditions: stopped flow technique; means ± SEM of 3 different assays; recombinant hCA I; read-out: Ki CA I
T1 construct: made in house
Experimental: (§1) An Applied Photophysics stopped-flow instrument has been used for assaying the CA catalyzed CO2 hydration activity. Phenol red (at a concentration of 0.2 mM) has been used as an indicator, working at the absorbance maximum of 557 nm, with 20 mM Hepes (pH 7.5) as buffer and 20 mM Na2SO4 (for maintaining constant the ionic strength), following the initial rates of the CA-catalyzed CO2 hydration reaction for a period of 10−100 s. The CO2 concentrations ranged from 1.7 to 17 mM for the determination of the kinetic parameters and inhibition constants. […] The uncatalyzed rates were determined in the same manner and subtracted from the total observed rates. Stock solutions of inhibitor (0.1 mM) were prepared in distilled−deionized water and dilutions up to 0.01 nM were performed thereafter with the assay buffer. Inhibitor and enzyme solutions were preincubated together for 15 min at room temperature before assay to allow for the formation of the E−I complex. The inhibition constants were obtained by nonlinear least-squares methods using PRISM 3 and the Cheng−Prusoff equation, as reported earlier, and they represent the mean from at least three different determinations. […] All hCA isoforms were recombinant ones obtained in-house as reported earlier.

hCA II = molecular target: T2, hCA II (Homo sapiens, UniProt P00918); assay: Stopped flow CO2 hydrase assay, hCA II inhibition; assay type: biochemical; conditions: stopped flow technique; means ± SEM of 3 different assays; recombinant hCA II; read-out: Ki CA II
T2 construct: made in house
Experimental: as §1

hCA XII = molecular target: T3, hCA XII (Homo sapiens, UniProt O43570); assay: Stopped flow CO2 hydrase assay, hCA XII inhibition; assay type: biochemical; conditions: stopped flow technique; means ± SEM of 3 different assays; recombinant hCA XII; read-out: Ki CA XII
T3 construct: made in house
Experimental: as §1

hCA IX = molecular target: T4, hCA IX (Homo sapiens, UniProt Q16790); assay: Stopped flow CO2 hydrase assay, hCA IX inhibition; assay type: biochemical; conditions: for Ki: stopped flow technique, means ± SEM of 3 different assays, recombinant hCA IX, read-out: Ki CA IX
T4 construct: made in house
Experimental: as §1

[1] = tested on: MDA-MB231, HT-29, SCC-15 and FaDu tumor cell lines; assay: In vitro proliferation assay, four tumor cell lines taken together; assay type: cell-based, human; conditions: four tumor cell lines; 5-100 µM; 24 and 48 h
Experimental: (§2) The effects of selected compounds were also examined on the proliferation of four cell lines from different human solid tumors overexpressing hCA isoforms IX and XII: triple negative breast cancer MDA-MB231, colon carcinoma HT-29, tongue squamous carcinoma SCC-15 and pharynx squamous carcinoma FaDu. The cell lines were treated with 5, 10, 20, 50, 100 µM of each single compound for 24 and 48 h. In parallel, the proliferation assay was performed also on HaCaT, a human non-transformed keratinocyte cell line, with each compound used at the same concentrations and times already indicated. The median values from three different proliferation assays for each compound and for each cell line were calculated and their significance was evaluated.
(§3) The following human tumor cell lines were utilized in the present study: triple-negative breast cancer MDA-MB231, colon carcinoma HT-29, tongue squamous cell carcinoma SCC-15 and pharynx squamous cell carcinoma FaDu. In addition, a spontaneously transformed keratinocyte cell line from human skin HaCaT was used as control of non-transformed cells. All cell lines were purchased from the American Type Culture Collection (Manassas, VA, USA).
(§4) The cell lines were grown in RPMI 1640 medium supplemented with 10% fetal calf serum (FCS), 2 mM glutamine and 50 U/mL penicillin–streptomycin.
(§5) All compounds were solubilized in dimethylsulfoxide (DMSO) (Sigma) for a 10 mM stock solution and utilized to final concentrations from 5 to 100 μM for 24 and 48 h. Control cells were treated with equivalent amounts of DMSO in every experiment.
(§6) To determine cytotoxicity, a sulforhodamine B colorimetric assay was performed: 5 × 10^3 cells were plated on 96-well plates, grown for 24 h and treated with different concentrations of each compound for 24 and 48 h. Cells were then fixed with 50% trichloroacetic acid for 1 h at 4 °C and stained for 30 min (min) at room temperature (RT) with 0.4% sulforhodamine B in 1% acetic acid. Excess dye was removed by washing four times with 1% acetic acid. Protein-bound dye was dissolved in 10 mM Tris pH 10 and optical density was determined at 510 nm using a microplate reader.

[2] = tested on: pharynx squamous carcinoma FaDu; assay: In vitro proliferation assay (sulforhodamine B), FaDu; assay type: cell-based; conditions: Homo sapiens, ± SD
Experimental: as §2, §3, §4, §5, §6

colon carcinoma HT-29 = assay: In vitro proliferation assay (sulforhodamine B), HT-29; assay type: cell-based; conditions: Homo sapiens, ± SD
Experimental: as §2, §3, §4, §5, §6

[3] = tested on: tongue squamous carcinoma SCC-15; assay: In vitro proliferation assay (sulforhodamine B), SCC-15; assay type: cell-based; conditions: Homo sapiens, ± SD
Experimental: as §2, §3, §4, §5, §6

[4] = tested on: triple negative breast cancer MDA-MB231; assay: In vitro proliferation assay (sulforhodamine B), MDA-MB231; assay type: cell-based; conditions: Homo sapiens, MDA-MB-231, ± SD
Experimental: as §2, §3, §4, §5, §6

T3 sequence (O43570 25-354): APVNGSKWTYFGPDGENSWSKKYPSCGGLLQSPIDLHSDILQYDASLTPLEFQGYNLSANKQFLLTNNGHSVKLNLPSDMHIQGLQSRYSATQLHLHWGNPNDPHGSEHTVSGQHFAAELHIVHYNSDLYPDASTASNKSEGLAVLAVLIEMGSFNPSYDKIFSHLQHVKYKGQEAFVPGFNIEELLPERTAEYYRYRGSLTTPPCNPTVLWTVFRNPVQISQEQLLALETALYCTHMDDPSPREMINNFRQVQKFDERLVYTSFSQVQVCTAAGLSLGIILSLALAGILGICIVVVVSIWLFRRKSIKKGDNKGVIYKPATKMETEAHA
T1 sequence (P00915 whole entry): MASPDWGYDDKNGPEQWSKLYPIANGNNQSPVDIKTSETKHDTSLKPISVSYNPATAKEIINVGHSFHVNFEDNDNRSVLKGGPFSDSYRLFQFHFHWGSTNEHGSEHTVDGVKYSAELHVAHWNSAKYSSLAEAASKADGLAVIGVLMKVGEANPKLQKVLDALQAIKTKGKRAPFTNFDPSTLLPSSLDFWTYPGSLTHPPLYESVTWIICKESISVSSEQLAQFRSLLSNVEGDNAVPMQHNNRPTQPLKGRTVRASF

Row | SMILES | Ki (hCA I) | Ki (hCA II) | Ki (hCA XII) | Ki (hCA IX) | Antiproliferative activity (in words) [1] | EC50 ([2]; 24 h treatment) | EC50 ([2]; 48 h treatment) | EC50 (colon carcinoma HT-29; 24 h treatment) | EC50 (colon carcinoma HT-29; 48 h treatment) | EC50 ([3]; 24 h treatment) | EC50 ([3]; 48 h treatment) | Selectivity for CA IX and XII over hCAs I and II (hCA IX; from Ki values) | EC50 ([4]; 24 h treatment) | EC50 ([4]; 48 h treatment)
1 | O=C(/C=C(\O)C(=O)O)/C=C/c1cccn1Cc1ccc(F)cc1 [Compound 1a] | 81.9 ± 6 µM | 14.6 ± 0.9 µM | 1 ± 0.1 µM | 2 ± 0.1 µM |  |  |  |  |  |  |  |  |  | 
2 | O=C(/C=C(\O)C(=O)O)/C=C/c1cccn1Cc1ccccc1F [Compound 1b] | 89.6 ± 4.8 µM | 14 ± 0.8 µM | 2.2 ± 0.1 µM | 2.5 ± 0.1 µM | low efficacy | 98 ± 8.6 µM | 90 ± 9.3 µM | 92 ± 9.9 µM | 75 ± 8.2 µM |  |  |  |  | 
3 | Cc1ccc(Cn2cccc2/C=C/C(=O)/C=C(\O)C(=O)O)cc1 [Compound 1c] | 79 ± 3.9 µM | 44.4 ± 2.6 µM | 0.9 ± 0.07 µM | 0.8 µM and 0.82 µM | significant antiproliferative activity | 59 ± 4.5 µM | 17 ± 0.9 µM | 115 ± 10.8 µM | 48 ± 4.1 µM | 96 ± 8.5 µM | 53 ± 5.9 µM | two orders of magnitude selective | 85 ± 9.1 µM | 73 ± 5.5 µM
4 | O=C(/C=C(\O)C(=O)O)/C=C/c1cc(C(=O)c2ccccc2)c[nH]1 [Compound 1d] | 72.5 ± 5.1 µM | 38.7 ± 2 µM | 1.1 ± 0.1 µM | 1.4 ± 0.1 µM |  |  |  |  |  |  |  |  |  | 
5 | CCOC(=O)/C(O)=C/C(=O)/C=C/c1cccn1Cc1ccc(F)cc1 [Compound 2a] | > 100 µM | > 100 µM | 83.6 ± 5.4 µM | 90.1 ± 4.7 µM |  |  |  |  |  |  |  |  |  | 
6 | CCOC(=O)/C(O)=C/C(=O)/C=C/c1cccn1Cc1ccccc1F [Compound 2b] | > 100 µM | > 100 µM | 80.5 ± 6.1 µM | 23.7 ± 1.6 µM |  |  |  |  |  |  |  |  |  | 
7 | CCOC(=O)/C(O)=C/C(=O)/C=C/c1cccn1Cc1ccc(C)cc1 [Compound 2c] | > 100 µM | > 100 µM | 89.3 ± 5.3 µM | 90.8 ± 4.6 µM |  |  |  |  |  |  |  |  |  | 
